Among the data in US9408850B2, “Substituted indazole derivatives active as kinase inhibitors” (NERVIANO MEDICAL SCIENCES S.R.L., priority 2011, dated 2016) are IC50 values, retold here.

The structures appear in SMILES notation. Structures can show the parent of a compound that is named as a salt.

The target of experiment [1] is FLT3 cytoplasmic domain (GST fused protein) (Homo sapiens (Human), UniProt P36888). Kind of experiment: Biochemical assay for inhibitors of FLT3 kinase activity. The note with it: 2 nM pre activated enzyme, 254 microM ATP, 60 minutes at r.t. The method, then: FLT3 cytoplasmic domain (aa 564-993end of the 993 aminoacid long full length sequence, accession number P36888 of UniProtKB/Swiss-Prot. database) was amplified by PCR starting from a testis cDNA library and then cloned into pVL vector for expression in insect cells through the baculovirus system. The GST-FLT3 cytoplasmic domain has been expressed in Sf21 cells infected for 72 hours at 27° C. The recombinant protein has been purified by affinity on GSH-sepharose and eluted with glutathione. A further purification step has been performed on heparine sepharose. […] General Principle-A specific peptidic substrate was trans-phosphorylated by the kinase in the presence of ATP traced with 33Pγ-ATP. At the end of the phosphorylation reaction, the not reacted ATP, cold and radioactive, was captured by an excess of dowex ion exchange resin that eventually settled by gravity to the bottom of the reaction plate. The supernatant was subsequently withdrawn and transferred into a counting plate that was then evaluated by β-counting. • ii. Dowex resin preparation-500 g of wet resin (SIGMA, custom prepared resin DOWEX 1×8 200-400 mesh, 2.5 Kg) were weighed out and diluted to 2 L in 150 mM sodium formate, pH 3.00. The resin was allowed to settle down overnight and then the supernatant was discarded. After three washes as above over a couple of days, the resin was allowed to settle and two volumes (with respect to the resin volume) were added of 150 mM sodium formate buffer. Biochemical Assay for Inhibitors of FLT3 Kinase Activity • i. Enzyme-The assay was performed using FLT3 cytoplasmic domain product and purified in house as GST fused protein. […] NO: 1). The peptide was purchased from American Peptide Company (Sunnyvale, Calif.). Biochemical Assay for Inhibitors of KIT Kinase Activity • i. Enzyme-The assay has been performed using KIT cytoplasmic domain product and purified in house as GST fused protein. […] NO: 2). The peptide was purchased from American Peptide Company (Sunnyvale, Calif.). Compound Testing • i. […] An automated station for serial dilutions (Biomek FX, Beckman) was used for producing 1:3 dilutions in 100% DMSO, from line A1 to A10, and for all the compounds in the column. […] The following dispensation into the plates plus 3 cycles of mixing, done by the robot itself, started the kinase reaction. At this point, the correct concentrations were restored for all the reagents. The robot incubated the plates for 60 minutes at r.t., and then stopped the reaction by pipetting 60 microL of dowex resin suspension into the reaction mix. In order to avoid tip clogging, wide bore tips were used to dispense the resin suspension. Three cycles of mixing were done immediately after the addition of the resin. Another mixing cycle was performed after all the plates were stopped, this time using normal tips: the plates were then allowed to rest for about one hour in order to allow resin sedimentation. […] Data Fitting-Data were analyzed by an internally customized version of the SW package “Assay Explorer” that provided sigmoidal fitting of the ten-dilutions curves for IC50 determination in the secondary assays/hit confirmation routines. Cell-Based Assays for Inhibitors of FLT3 Kinase Activity In vitro Cell Proliferation Assay for Inhibitors of FLT3 Kinase Activity

Experiment [2] concerns the target KIT cytoplasmic domain (GST fused protein) (Homo sapiens (Human), UniProt P10721). Kind of experiment: Biochemical assay for inhibitors of KIT kinase activity. The note with it: 4 nM pre activated enzyme, 4.4 microM ATP, 60 minutes at r.t. On the procedure: KIT cytoplasmic domain (aa 544-976end of the 976 aminoacid long full length sequence, accession number P10721 of UniProtKB/Swiss-Prot database) was cloned into pVL vector for expression in insect cells through the baculovirus system. The GST-KIT cytoplasmic domain has been expressed in Sf21 cells infected for 66 hrs at 27° C. The recombinant protein has been purified by affinity on GSH-sepharose and eluted with glutathione. […] General Principle-A specific peptidic substrate was trans-phosphorylated by the kinase in the presence of ATP traced with 33Pγ-ATP. At the end of the phosphorylation reaction, the not reacted ATP, cold and radioactive, was captured by an excess of dowex ion exchange resin that eventually settled by gravity to the bottom of the reaction plate. The supernatant was subsequently withdrawn and transferred into a counting plate that was then evaluated by β-counting. • ii. Dowex resin preparation-500 g of wet resin (SIGMA, custom prepared resin DOWEX 1×8 200-400 mesh, 2.5 Kg) were weighed out and diluted to 2 L in 150 mM sodium formate, pH 3.00. The resin was allowed to settle down overnight and then the supernatant was discarded. After three washes as above over a couple of days, the resin was allowed to settle and two volumes (with respect to the resin volume) were added of 150 mM sodium formate buffer. Biochemical Assay for Inhibitors of FLT3 Kinase Activity • i. Enzyme-The assay was performed using FLT3 cytoplasmic domain product and purified in house as GST fused protein. […] The peptide was purchased from American Peptide Company (Sunnyvale, Calif.). Biochemical Assay for Inhibitors of KIT Kinase Activity • i. Enzyme-The assay has been performed using KIT cytoplasmic domain product and purified in house as GST fused protein. […] NO: 2). The peptide was purchased from American Peptide Company (Sunnyvale, Calif.). Compound Testing • i. […] An automated station for serial dilutions (Biomek FX, Beckman) was used for producing 1:3 dilutions in 100% DMSO, from line A1 to A10, and for all the compounds in the column. […] The following dispensation into the plates plus 3 cycles of mixing, done by the robot itself, started the kinase reaction. At this point, the correct concentrations were restored for all the reagents. The robot incubated the plates for 60 minutes at r.t., and then stopped the reaction by pipetting 60 microL of dowex resin suspension into the reaction mix. In order to avoid tip clogging, wide bore tips were used to dispense the resin suspension. Three cycles of mixing were done immediately after the addition of the resin. Another mixing cycle was performed after all the plates were stopped, this time using normal tips: the plates were then allowed to rest for about one hour in order to allow resin sedimentation. […] Data Fitting-Data were analyzed by an internally customized version of the SW package “Assay Explorer” that provided sigmoidal fitting of the ten-dilutions curves for IC50 determination in the secondary assays/hit confirmation routines. Cell-Based Assays for Inhibitors of FLT3 Kinase Activity In vitro Cell Proliferation Assay for Inhibitors of FLT3 Kinase Activity

Chain of FLT3 cytoplasmic domain (GST fused protein) (P36888 564-993): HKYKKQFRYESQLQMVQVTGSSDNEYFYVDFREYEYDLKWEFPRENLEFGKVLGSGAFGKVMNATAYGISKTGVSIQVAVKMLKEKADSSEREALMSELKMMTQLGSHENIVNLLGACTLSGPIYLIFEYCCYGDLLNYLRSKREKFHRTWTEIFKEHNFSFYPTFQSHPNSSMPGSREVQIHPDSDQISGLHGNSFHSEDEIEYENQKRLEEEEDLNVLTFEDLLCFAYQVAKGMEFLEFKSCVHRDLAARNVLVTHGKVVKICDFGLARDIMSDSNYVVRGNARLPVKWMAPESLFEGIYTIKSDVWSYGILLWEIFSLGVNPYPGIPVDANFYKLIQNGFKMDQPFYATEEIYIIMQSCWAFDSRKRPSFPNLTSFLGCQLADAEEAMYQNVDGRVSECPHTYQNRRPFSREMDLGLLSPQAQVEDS
Chain of KIT cytoplasmic domain (GST fused protein) (P10721 544-976): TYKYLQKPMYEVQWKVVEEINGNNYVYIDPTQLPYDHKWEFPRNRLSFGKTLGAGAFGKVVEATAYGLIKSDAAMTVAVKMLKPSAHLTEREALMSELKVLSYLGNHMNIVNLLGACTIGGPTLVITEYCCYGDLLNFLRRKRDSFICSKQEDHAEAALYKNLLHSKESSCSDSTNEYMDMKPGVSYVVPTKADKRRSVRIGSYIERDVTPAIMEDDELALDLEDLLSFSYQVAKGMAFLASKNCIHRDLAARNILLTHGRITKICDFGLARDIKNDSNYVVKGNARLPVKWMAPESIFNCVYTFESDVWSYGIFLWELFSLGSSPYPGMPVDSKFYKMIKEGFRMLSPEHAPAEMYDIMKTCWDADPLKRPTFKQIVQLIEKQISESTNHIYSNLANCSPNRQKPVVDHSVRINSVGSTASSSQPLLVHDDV

Take `CN1CCN(c2ccc(C(=O)Nc3n[nH]c4cc(OCCOCc5ccccc5)ccc34)c(F)c2)CC1` [Cpd. 38, N-[6-(2-Benzyloxy-ethoxy)-1H-indazol-3-yl]-2-fluoro-4-(4-methyl-piperazin-1-yl)-benzamide]: the values for the IC50 in experiment [1] and in experiment [2] were 539 nM and 613 nM, respectively.

`CN1CCN(c2ccc(C(=O)Nc3n[nH]c4cc(OC/C=C/c5ccccc5)ccc34)cc2)CC1` [Cpd. 39, 4-(4-Methyl-piperazin-1-yl)-N-[6-((E)-3-phenyl-allyloxy)-1H-indazol-3-yl]-benzamide]: the values for the IC50 in experiment [1] and in experiment [2] were 62 nM and 528 nM, respectively.

As for `CN1CCN(c2ccc(C(=O)Nc3n[nH]c4cc(OCCOCc5ccc(F)cc5)ccc34)cc2)CC1` [Cpd. 32, N-{6-[2-(4-Fluoro-benzyloxy)-ethoxy]-1H-indazol-3-yl}-4-(4-methyl-piperazin-1-yl)-benzamide], the IC50 in experiment [1] and in experiment [2] was under 50 nM each time.

As for `CN1CCN(c2ccc(C(=O)Nc3n[nH]c4cc(OCCOCc5ccc(C(F)(F)F)cc5)ccc34)cc2)CC1` [Cpd. 33, 4-(4-Methyl-piperazin-1-yl)-N-{6-[2-(4-trifluoromethyl-benzyloxy)-ethoxy]-1H-indazol-3-yl}-benzamide], the IC50 in experiment [1] and in experiment [2] was under 50 nM in each case.

Turning to `O=C(Nc1n[nH]c2cc(OCCOCc3ccccc3)ccc12)c1ccc(NCCN2CCOCC2)cc1` [Cpd. 25, N-[6-(2-Benzyloxy-ethoxy)-1H-indazol-3-yl]-4-(2-morpholin-4-yl-ethylamino)-benzamide hydrochloride], the results for the IC50 in experiment [1] and in experiment [2] were 74 nM and 197 nM, respectively.

In the case of `CN(C)c1ccc(C(=O)Nc2n[nH]c3cc(OCc4ccccc4)ccc23)cc1` [Ref. Compound, reference compound], the IC50 in experiment [1] is 3180 nM; in experiment [2], over 10000 nM.

In the case of `CN1CCN(c2ccc(C(=O)Nc3n[nH]c4cc(OCCOCc5ccccc5)ccc34)cc2)CC1` [Cpd. 11, N-[6-(2-Benzyloxy-ethoxy)-1H-indazol-3-yl]-4-(4-methyl-piperazin-1-yl)-benzamide], the figures for the IC50 in experiment [1] and in experiment [2] were under 50 nM and 113 nM, respectively.

On to `CN1CCN(c2ccc(C(=O)Nc3n[nH]c4cc(OC5CCN(Cc6ccccc6)CC5)ccc34)cc2)CC1` [Cpd. 6, N-[6-(1-Benzyl-piperidin-4-yloxy)-1H-indazol-3-yl]-4-(4-methyl-piperazin-1-yl)-benzamide], for which the IC50 in experiment [1] was 248 nM; in experiment [2], 6890 nM.

`C[N+]1([O-])CCN(c2ccc(C(=O)Nc3n[nH]c4cc(OCCOCc5ccc(C(F)(F)F)cc5)ccc34)cc2)CC1` [Cpd. 42, 4-(4-Methyl-4-oxy-piperazin-1-yl)-N-{6-[2-(4-trifluoromethyl-benzyloxy)-ethoxy]-1H-indazol-3-yl}-benzamide hydrochloride]: the results for the IC50 in experiment [1] and in experiment [2] were under 50 nM and 55 nM, respectively.

In the case of `CN1CCN(c2cccc(C(=O)Nc3n[nH]c4cc(OCCOCc5ccccc5)ccc34)c2)CC1` [Cpd. 29, N-[6-(2-Benzyloxy-ethoxy)-1H-indazol-3-yl]-3-(4-methyl-piperazin-1-yl)-benzamide hydrochloride], the IC50 in experiment [1] is 635 nM; in experiment [2], 1080 nM.

Regarding `CN1CCN(c2ccc(C(=O)Nc3n[nH]c4cc(Oc5cccc(OCc6ccccc6)c5)ccc34)cc2)CC1` [Cpd. 9, N-[6-(3-Benzyloxy-phenoxy)-1H-indazol-3-yl]-4-(4-methyl-piperazin-1-yl)-benzamide], the IC50 in experiment [1] stood at 1500 nM; in experiment [2], 713 nM.

On to `CN1CCC(Nc2ccc(C(=O)Nc3n[nH]c4cc(OCCOCc5ccccc5)ccc34)cc2)CC1` [Cpd. 19, N-[6-(2-Benzyloxy-ethoxy)-1H-indazol-3-yl]-4-(1-methyl-piperidin-4-ylamino)-benzamide], for which the IC50 in experiment [1] was under 50 nM; in experiment [2], 61 nM.

For the compound `CC(C)(C)OC(=O)N1CCN(c2ccc(C(=O)Nc3n[nH]c4cc(OCCOCc5ccccc5)ccc34)cc2)CC1` [Cpd. 18, 4-{4-[6-(2-Benzyloxy-ethoxy)-1H-indazol-3-ylcarbamoyl]-phenyl}-piperazine-1-carboxylic acid tert-butyl ester], the IC50 in experiment [1] was found to be 414 nM; in experiment [2], 1390 nM.

With `CN1CCN(c2ccc(C(=O)Nc3n[nH]c4cc(OCCOCc5cccc(C(F)(F)F)c5)ccc34)cc2)CC1` [Cpd. 34, 4-(4-Methyl-piperazin-1-yl)-N-{6-[2-(3-trifluoromethyl-benzyloxy)-ethoxy]-1H-indazol-3-yl}-benzamide], the IC50 stood at 56 nM in experiment [1] and 58 nM in experiment [2].

With `COc1ccc(COCCOc2ccc3c(NC(=O)c4ccc(N5CCN(C)CC5)cc4)n[nH]c3c2)cc1` [Cpd. 40, N-{6-[2-(4-Methoxy-benzyloxy)-ethoxy]-1H-indazol-3-yl}-4-(4-methyl-piperazin-1-yl)-benzamide], the IC50 was under 50 nM in experiment [1] and 88 nM in experiment [2].

Consider `CN1CCN(c2ccc(C(=O)Nc3n[nH]c4cc(OCc5ccccc5)ccc34)cc2)CC1` [Cpd. 1, N-(6-Benzyloxy-1H-indazol-3-yl)-4-(4-methyl-piperazin-1-yl)-benzamide], for which the IC50 turned out to be 428 nM in experiment [1] and 2800 nM in experiment [2].
